Reference: patent US8318667B2, “Glucagon receptor antagonist compounds, compositions containing such compounds and methods of use” (Merck Sharp & Dohme Corp., priority 2009, dated 2012)

Molecular target: T1, human glucagon receptor (Homo sapiens, UniProt P47871)
T1 construct: expressed in transfected cells; cell membranes used
Assay: Glucagon Receptor Binding Assay (125I-glucagon, SPA, CHO cell membranes)
Settings: for IC50: inhibition of 125I-glucagon binding to membranes of CHO cells expressing cloned human glucagon receptor, value for the most active stereoisomer prepared; for relative potency as glucagon receptor antagonist among the stereoisomers prepared: comparison of stereoisomers of the same example, assay not stated
Protocol: A stable CHO (Chinese hamster ovary) cell line expressing cloned human glucagon receptor was maintained as described (Chicchi, et. al. J Biol Chem 272, 7765-9(1997); Cascieri, et. al. J Biol Chem 274, 8694-7(1999)). To determine antagonistic binding affinity of compounds, 0.001-0.003 mg of cell membranes from these cells were pre-incubated with 0.100 mg WGA-coated PVT SPA beads (Amersham) for 20 minutes at room temperature in […] of a buffer containing 50 mM Tris-HCl (pH 7.5), 5 mM MgCl2, 2 mM EDTA, 0.1% BSA and 3% glycerol in Costar 384 well plates with clear bottoms (#3706). Next, 25 μL of ^125I-Glucagon (New England Nuclear, MA) (1×10^−14 mol per well) and either 1 μL solutions of test compounds or 0.001 mM unlabeled glucagon or DMSO were added and mixed. After 4-12 hours incubation at room temperature, the radioactivity bound to the cell membranes was determined in a radioactive emission detection counter (Wallac-Microbeta). Data were analyzed using the Data Analyzer software program of Merck & Co., Inc. The IC50 values were calculated using non-linear regression analysis assuming single-site competition.

T1 sequence (P47871 26-477): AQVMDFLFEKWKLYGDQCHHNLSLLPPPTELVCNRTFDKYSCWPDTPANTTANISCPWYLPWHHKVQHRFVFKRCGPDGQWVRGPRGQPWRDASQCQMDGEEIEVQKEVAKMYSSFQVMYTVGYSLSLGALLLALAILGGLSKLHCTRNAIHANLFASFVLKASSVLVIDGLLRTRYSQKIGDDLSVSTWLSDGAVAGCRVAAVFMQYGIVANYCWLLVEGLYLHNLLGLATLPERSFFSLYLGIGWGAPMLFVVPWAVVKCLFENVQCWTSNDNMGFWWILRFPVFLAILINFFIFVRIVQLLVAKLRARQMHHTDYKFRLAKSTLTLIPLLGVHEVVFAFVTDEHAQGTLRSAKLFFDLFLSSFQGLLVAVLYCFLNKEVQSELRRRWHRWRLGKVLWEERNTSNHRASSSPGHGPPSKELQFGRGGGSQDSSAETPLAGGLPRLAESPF

Row | SMILES | IC50 | relative potency as glucagon receptor antagonist among the stereoisomers prepared
1 | CCC[C@H](c1ccc(C(=O)NCCC(=O)O)cc1)[C@H](c1ccc(Cl)cc1)c1n[nH]c2c(F)cc(C)cc12 (single isomer, unassigned) [Example 37] | 0.8 nM | –
2 | CCCC(c1ccc(C(=O)NCCC(=O)O)cc1)C(c1ccc(Cl)cc1)c1n[nH]c2c(F)cc(C#N)cc12 (single isomer, unassigned) [Example 36, N-(4-{1-[(4-Chlorophenyl)(5-Cyano-7-Fluoro-1H-Indazol-3-Yl)Methyl]Butyl}Benzoyl)-β-Alanine] | 4.3 nM | the more potent glucagon receptor antagonist
3 | CCCC(c1ccc(C(=O)NCCC(=O)O)cc1)C(c1ccc(Cl)cc1)c1n[nH]c2c(Cl)cc(C(F)(F)F)cc12 (single isomer, unassigned) [Example 6, N-[4-(1-{(4-CHLOROPHENYL)[7-CHLORO-5-(TRIFLUOROMETHYL)-1H-INDAZOL- 3-YL]METHYL}BUTYL)BENZOYL]-β-ALANINE] | 0.2 nM | –
4 | CCCC(c1ccc(C(=O)NCCC(=O)O)cc1)C(c1ccc(Cl)cc1)c1n[nH]c2c(C)cc(Cl)cc12 (single isomer, unassigned) [Example 1] | 0.6 nM | most potent glucagon antagonist of the four stereoisomeric compounds
5 | CCCC(c1ccc(C(=O)NCCC(=O)O)cc1)C(c1ccc(Cl)cc1)c1nn(C)c2c(Cl)cc(Cl)cc12 (single isomer, unassigned) [Example 12, N-[4-(1-{(4-CHLOROPHENYL)[1-METHYL-5,7-DICHLORO-1H-INDAZOL-3- YL]METHYL}BUTYL)BENZOYL]-β-ALANINE] | 0.9 nM | –
6 | CCCC(c1ccc(C(=O)NCCC(=O)O)cc1)C(c1ccc(Cl)cc1)c1nn(C)c2c(C)cc(Cl)cc12 (single isomer, unassigned) [Example 11, N-[4-(1-{(4-CHLOROPHENYL)[1,7-DIMETHYL-5-CHLORO-1H- INDAZOL-3-YL]METHYL}BUTYL)BENZOYL]-β-ALANINE] | 0.7 nM | –
7 | CCCC(c1ccc(C(=O)NCCC(=O)O)cc1)C(c1ccc(Cl)cc1)c1c2cc(C(F)(F)F)cc(Cl)c2nn1-c1ccccc1 (single isomer, unassigned) [Example 3, N-[4-(1-{(4-Chlorophenyl)[7-Chloro-2-Phenyl-5-(Trifluoromethyl)-2H-Indazol-3-Yl]Methyl}Butyl)Benzoyl]-β-Alanine] | 37 nM | –
8 | CCCC(c1ccc(C(=O)NCCC(=O)O)cc1)C(c1ccc(Cl)cc1)c1c2cc(C(F)(F)F)cc(Cl)c2nn1C (single isomer, unassigned) [Example 4, N-[4-(1-{(4-Chlorophenyl)[7-Chloro-2-Methyl-5-(Trifluoromethyl)-2H-Indazol-3-Yl]Methyl}Butyl)Benzoyl]-β-Alanine] | 2.6 nM | most potent glucagon receptor antagonist of the four stereoisomeric compounds
9 | CCCC(c1ccc(C(=O)NCCC(=O)O)cc1)C(c1ccc(Cl)cc1)c1c2cc(Cl)cc(Cl)c2nn1C (single isomer, unassigned) [Example 19, N-[4-(1-{(4-CHLOROPHENYL)[2-METHYL-5,7-DICHLORO-2H-INDAZOL-3- YL]METHYL}BUTYL)BENZOYL]-β-ALANINE] | 2 nM | –
10 | CCCC(c1ccc(C(=O)NCCC(=O)O)cc1)C(c1ccc(Cl)cc1)c1n[nH]c2ccc(C(F)(F)F)cc12 (single isomer, unassigned) [Example 5, N-[4-(1-{(4-CHLOROPHENYL)[5-(TRIFLUOROMETHYL)-1H- INDAZOL-3-YL]METHYL}BUTYL)BENZOYL]-β-ALANINE] | 0.8 nM | –
11 | CCCC(c1ccc(C(=O)NCCC(=O)O)cc1)C(c1ccc(Cl)cc1)c1nn(C)c2c(Cl)cc(C(F)(F)F)cc12 (single isomer, unassigned) [Example 2, N-(4-{1-[[7-Chloro-1-Methyl-5-(Trifluoromethyl)-1H-Indazol-3-Yl](4-Chlorophenyl)Methyl]Butyl}Benzoyl)-β-Alanine] | 0.7 nM | –
12 | CCCC(c1ccc(C(=O)NCCC(=O)O)cc1)C(c1ccc(Cl)cc1)c1nn(C)c2c(F)cc(F)cc12 (single isomer, unassigned) [Example 10, N-[4-(1-{(4-CHLOROPHENYL)[1-METHYL-5,7-DIFLUORO-1H- INDAZOL-3-YL]METHYL}BUTYL)BENZOYL]-β-ALANINE] | 4 nM | –
13 | CCCC(c1ccc(C(=O)NCCC(=O)O)cc1)C(c1ccc(Cl)cc1)c1nn(C)c2ccc(C(F)(F)F)cc12 (single isomer, unassigned) [Example 9, N-[4-(1-{(4-CHLOROPHENYL)[1-METHYL-5-(TRIFLUOROMETHYL)-1H- INDAZOL-3-YL]METHYL}BUTYL)BENZOYL]-β-ALANINE] | 1 nM | –
14 | CCCC(c1ccc(C(=O)NCCC(=O)O)cc1)C(c1ccc(Cl)cc1)c1n[nH]c2c(F)cc(-c3cccc(F)c3)cc12 (racemic) [Example 24] | 1.7 nM | –
15 | CCCC(c1ccc(C(=O)NCCC(=O)O)cc1)C(c1ccc(Cl)cc1)c1c2cc(C(F)(F)F)ccc2nn1C (single isomer, unassigned) [Example 13, N-[4-(1-{(4-CHLOROPHENYL)[2-METHYL-5- (TRIFLUOROMETHYL)-2H-INDAZOL-3- YL]METHYL}BUTYL)BENZOYL]-β-ALANINE] | 3.3 nM | –
16 | CCCC(c1ccc(C(=O)NCCC(=O)O)cc1)C(c1ccc(Cl)cc1)c1n[nH]c2c(F)cc(-c3ccc(C)cc3)cc12 (single isomer, unassigned) [Example 21, N-[4-(1-{(4-Chlorophenyl)[7-Fluoro-5-(4-Methylphenyl)-1H-Indazol-3-Yl]Methyl}Butyl)Benzoyl]-β-Alanine] | 2.6 nM | the more potent glucagon receptor antagonist
17 | CCCC(c1ccc(C(=O)NCCC(=O)O)cc1)C(c1ccc(Cl)cc1)c1c2cc(C(F)(F)F)cc(Cl)c2nn1CC(F)(F)F (single isomer, unassigned) [Example 17, N-[4-(1-{(4-CHLOROPHENYL)[7-CHLORO-2-(2,2,2- TRIFLUOROETHYL)-5-(TRIFLUOROMETHYL)-2H-INDAZOL-3- YL]METHYL}BUTYL)BENZOYL]-β-ALANINE] | 3.9 nM | –
18 | CCCC(c1ccc(C(=O)NCCC(=O)O)cc1)C(c1ccc(Cl)cc1)c1n[nH]c2c(Cl)cc(Cl)cc12 (single isomer, unassigned) [Example 8, N-[4-(1-{(4-CHLOROPHENYL)[5,7-DICHLORO-1H-INDAZOL-3- YL]METHYL}BUTYL)BENZOYL]-β-ALANINE] | 0.4 nM | –
